Laboratory results published in ChEMBL document CHEMBL1123968, “Isoprenoid (phosphinylmethyl)phosphonates as inhibitors of squalene synthetase” (J Med Chem, 1988).

What follows are compounds tested against T1, Squalene synthase (Rattus norvegicus, UniProt Q02769) (assay: Inhibition of squalene synthetase was determined in rat liver microsomes). Conditions: read-out: I50.
T1 sequence (Q02769 whole entry): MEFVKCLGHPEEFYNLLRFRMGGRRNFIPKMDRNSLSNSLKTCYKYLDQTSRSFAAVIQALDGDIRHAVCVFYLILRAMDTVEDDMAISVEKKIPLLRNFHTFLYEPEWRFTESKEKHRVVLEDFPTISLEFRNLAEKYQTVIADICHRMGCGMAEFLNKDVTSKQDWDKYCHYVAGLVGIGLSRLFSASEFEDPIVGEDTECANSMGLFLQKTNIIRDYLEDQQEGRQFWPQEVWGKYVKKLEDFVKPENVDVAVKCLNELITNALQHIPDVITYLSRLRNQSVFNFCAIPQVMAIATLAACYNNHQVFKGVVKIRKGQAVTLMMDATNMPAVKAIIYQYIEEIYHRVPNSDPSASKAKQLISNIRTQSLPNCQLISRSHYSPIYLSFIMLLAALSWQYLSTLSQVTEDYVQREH
Design: species or system Microsome

In order of falling IC50:
1. COP(=O)(O)CP(=O)(O)CC/C=C(\C)CC/C=C(\C)CCC=C(C)C  177 µM
2. CC(C)=CCC/C(C)=C/CC/C(C)=C/CCCP(=O)(O)CP(=O)(O)O  67 µM
3. CC(C)=CCC/C(C)=C/CC/C(C)=C/CCP(=O)(O)OP(=O)(O)O  42 µM
4. CC(C)=CCC/C(C)=C/CC/C(C)=C/CCP(=O)(O)CP(=O)(O)O  31.5 µM
5. CC(C)=CCC/C(C)=C/CC/C(C)=C/CCP(=O)(O)C(F)(F)P(=O)(O)O  29.9 µM
6. CC(C)=CCC/C(C)=C/CC/C(C)=C/C=C/P(=O)(O)C(F)(F)P(=O)(O)O  15.5 µM
7. CC(C)=CCC/C(C)=C/CC/C(C)=C/C=C/P(=O)(O)CP(=O)(O)O  12.2 µM
